Here are results for two molecules from article PMC11242382, “Rapid Screening of Chemical Components in Salvia miltiorrhiza with the Potential to Inhibit Skin Inflammation” (International Journal of Molecular Sciences, 2024).

Holding throughout (format): biochemical
Assay [1] concerns the target T1, HAase (Bos taurus, UniProt Q2YDK3).
T1 sequence (Q2YDK3 36-553): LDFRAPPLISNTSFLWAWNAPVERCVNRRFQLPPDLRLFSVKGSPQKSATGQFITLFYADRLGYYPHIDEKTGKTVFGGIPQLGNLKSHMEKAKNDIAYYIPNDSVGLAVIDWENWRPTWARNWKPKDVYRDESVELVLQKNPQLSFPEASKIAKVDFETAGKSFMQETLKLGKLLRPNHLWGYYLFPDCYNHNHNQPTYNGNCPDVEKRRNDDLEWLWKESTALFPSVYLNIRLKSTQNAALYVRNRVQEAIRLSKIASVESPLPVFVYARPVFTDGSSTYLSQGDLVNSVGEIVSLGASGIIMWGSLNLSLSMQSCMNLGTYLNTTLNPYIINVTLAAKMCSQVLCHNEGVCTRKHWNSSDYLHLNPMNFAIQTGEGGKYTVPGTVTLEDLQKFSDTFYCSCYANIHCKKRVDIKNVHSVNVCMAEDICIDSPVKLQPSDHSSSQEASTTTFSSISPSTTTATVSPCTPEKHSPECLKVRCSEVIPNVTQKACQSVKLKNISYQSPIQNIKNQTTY
The experiment in a line: Enzyme kinetics study (Lineweaver–Burk plots). To be noted: for type of HAase inhibition: Lineweaver–Burk plots; for Kis: from Y-intercept of double inverse curve vs inhibitor concentration. The procedure: We conducted enzyme kinetic studies to explore the inhibitory patterns of the ligands of HAase, employing a method that was previously documented. Based on the earlier HAase inhibition assay, 5 different concentrations of ligands (0, 1/2 × IC50, 1 × IC50, 3/2 × IC50, and 2 × IC50) were reacted with 5 different concentrations of sodium hyaluronate (500, 750, 1000, 1250, and 1500 µM). The reaction rate was monitored within the initial 30 min post-initiation. Grouping the samples by concentration, we derived the corresponding regression equations to construct the Lineweaver–Burk diagram, with the reciprocal of the average reaction rate (1/V) on the ordinate and the reciprocal of the substrate concentration (1/[S]) on the abscissa. From this diagram, we extracted the reciprocal of the transverse intercept (Km) and longitudinal intercept (Vmax) to compute the values of the constants Ki and Kis.

In assay [2] the target is T1, HAase. The experiment in a line: Combined effects of SAB and RA on HAase (median-effect equation, combination index). To be noted: for Fa (%): SAB-only group. The procedure:
(§1) The inhibition assay of the ligands against HAase was performed, following the Elson–Morgan modified method, and the working concentration of the sample was determined to be 0.5 mg/mL [35, 36, 37]. The assays took place in 10 mL centrifuge tubes. Firstly, 0.5 mL of sample solution and 0.5 mL of HAase were added (500 U/mL) to the tube in a 37 °C water bath for 20 min. Then, 0.1 mL of CaCl2 (2.5 mol/L) solution was added to the tube in a 37 °C water bath for 20 min. Next, 0.5 mL of sodium hyaluronate solution (0.5 mg/mL) was added to the tube at 37 °C in a water bath for 40 min. Afterward, we added 0.5 mL of distilled water, 0.1 mL of NaOH solution, and 0.5 mL of acetylacetone (composed of 50 mL of Na2CO3 (1 M) and 3.5 mL of acetylacetone) to the tube. This mixture was kept in the 37 °C water bath for 15 min and then transferred to an ice bath for 10 min, followed by 10 min at room temperature. Afterward, 1 mL of P-DAB and 4.3 mL of ethanol were added to it. The absorbance was measured at 530 nm after allowing the solution to stand for 30 min. The HAase inhibition rate (R) was calculated using the following formula:(1) R=A0−A/A0×100% where A0 is the absorbance of the control group (without the sample, enzyme solution, and sodium hyaluronate as the drug control), and A is the absorbance of the sample group (with the sample, no enzyme solution, and sodium hyaluronate as the blank control); ascorbic acid was the positive control.
The Fa value for each group is Fa (%) = R* (where R* denotes the mean value of inhibition in the administered group). Neutralization graphs (y = log Fa/Fu, x = logD, and y = ax + b) and the neutralization of the two components in monotherapy and combination were calculated based on the neutralization equation Fa/Fu = (D/Dm)^m. In this equation, Fa is the drug effect, Fu = 1 − Fa, D is the drug concentration, Dm is the neutralization concentration, that is, the concentration of the drug when it exerts 50% of its effect, and m is the slope of the equation of the neutralization curve. Dose was calculated using (logDm = −b/a, a = m) and the corresponding parameters of the equation (slope m and correlation coefficient r, etc.). Then, the CI value of the combined effect was calculated according to the following formula:(2) CI=D1/Dx1+D2/Dx2 where D1 and D2 are the concentrations of each of the two drugs causing the x effect when combined, and Dx1 and Dx2 are the concentrations of each of the two drugs causing the x effect when used alone. […] The quantitative effect-relationship curves of the two drugs individually and after combination were plotted using GraphPad Prism V5.0, with the drug concentration as the horizontal coordinate and the Fa value as the vertical coordinate. The data of the combined action group were simulated using Compusyn V1.0 and the neutral effect equation. The Fa-CI curves were plotted using GraphPad Prism V5.0, with the simulated Fa on the horizontal axis and its corresponding CI value on the vertical axis. This comprehensive analysis aimed to thoroughly evaluate the effects of the 2 drugs following their combined action, based on the provided data.

Assay [3] deals with T1, HAase. The experiment in a line: HAase inhibition assay (Elson–Morgan modified method). The procedure:
as §1, with “The HAase inhibition rate (R) was calculated using the following formula:(1) R=A0−A/A0×100% where A0 is the absorbance of the control group (without the sample, enzyme solution, and sodium hyaluronate as the drug control), and A is the absorbance of the sample group (with the sample, no enzyme solution, and sodium hyaluronate as the blank control); ascorbic acid was the positive control.” left out

With `O=C(/C=C/c1ccc(O)c(O)c1)O[C@H](Cc1ccc(O)c(O)c1)C(=O)O` [RA, rosmarinic acid], at HAase [1], the “type of HAase inhibition” value is reported as “mixed-type inhibitors” and the Kis is 4.60 µM. For the same molecule, at HAase [2] (median-effect equation), the “m (slope of the neutralization curve equation)” value is given as 0.6904.
Take salvianolic acid B [SAB]: the “type of HAase inhibition” value on HAase [1] is given as “mixed-type inhibitors”. This molecule also registered a Kis at HAase [1] of 0.96 µM. The “IC50 against HAase” value on HAase [3] was 204.15 ± 1.08 µg/mL. For the same molecule, the “Inhibition Rate (%) against HAase” value at HAase [3] (sample concentration 0.5 mg/mL, mean ± SD (n = 3)) is given as 68.27 ± 0.71%. The “Fa (%)” value came out at 8.30% at HAase [2] (0.006 mg/mL); 18.07% at HAase [2] (0.03 mg/mL); 22.16% on HAase [2] (0.06 mg/mL); 40.98% at HAase [2] (0.15 mg/mL); 59.08% on HAase [2] (0.3 mg/mL). The “m (slope of the neutralization curve equation)” value on HAase [2] (median-effect equation) is on record as 0.6928. In addition, at HAase [2] (median-effect equation, concentration at 50% of effect), the “Dm (median effective concentration)” value was 0.2424 mg/mL.
